Laboratory results reported in US8987502B2, “Oleanolic acid amidate derivatives, preparation methods and uses thereof” (Hangzhou Bensheng Pharmaceutical Co., Ltd., priority 2011, dated 2015).
In brackets after ≈: the same amount, converted by molar mass.

How the values were obtained:
[1] = tested on: A549; experiment: MTT solid tumor cell proliferation inhibition, A549; format: cell-based, human
Description: (§1) Human solid tumor cell lines: Hep-2 (laryngeal carcinoma), A549 (human lung cancer), CaES-17 (esophageal cancer cell), PC-3 (prostate cancer), CNE (nasopharyngeal carcinoma cell), and SK-OV-3 (ovarian cancer cell), all of which are purchased from China Center For Type Culture Collection; RKO (human colon adenocarcinoma cell), MGC 803 (human gastric cancer cell), MG63 (osteosarcoma) and U87 MG (malignant glioma cell), all of which are purchased from Fuxiang Bio-tech Co. Ltd., Shanghai, China; PANC-1 (pancreatic cancer), Hep G2 (human liver cancer cell), Becap37 (human breast cancer cell), and Hela (human cervical cancer cell), all of which are donated by Cancer Research Institute of Zhejiang University, China.
(§2) Obtaining 4000 well-growing human solid tumor cells and inoculating them into wells of a 96-well cell culture plate. The culture medium is DMEM High Glucose cell culture medium containing 10% fetal bovine serum. The plate is placed in a carbon dioxide cell incubator (5% CO2) at 37° C. for 24 hours for incubation. After being added with the amidated oleanolic acid derivatives of different concentrations and mixed uniformly, the plate is placed in a carbon dioxide cell incubator (5% CO2) at 37° C. for 72 hours for incubation. Then the relative number of the living cells is determined by the MTT method. In this experiment, the cell proliferation inhibition rate in control group (not treated with any compound) is set as 0%.

[2] = tested on: Jurkat; experiment: MTT leukemia cell proliferation inhibition, Jurkat; format: cell-based; settings: Homo sapiens, 72 h
From the text: (§3) Leukemia cell lines: leukemia cell lines: K562/adr (drug-resistant, chronic myeloid leukemia, CML), NB4 (acute promyelocytic leukemia, AML), Kasumi-1 (acute myeloid leukemia M2 type, AML-M2), Jurkat (acute lymphoblastic leukemia, ALL), all of which are donated by Cancer Research Institute of Zhejiang University, China; and H9 (acute lymphoblastic leukemia, ALL), which is purchased from China Center for Type Culture Collection (CCTCC).
(§4) Reagents: The standard sample of oleanolic acid (OA) is purchased from Hua Kang Pharmaceutical Raw Material Factory, Shifang City, Sichuan, China; and the amidated oleanolic acid derivatives are prepared according to the present invention.
(§5) Obtaining 6000 well-growing leukemia cells and inoculating them into wells of a 96-well cell culture plate. The culture medium is the 1640 cell culture medium containing 10% fetal bovine serum. After adding the amidated oleanolic acid derivatives of different concentrations and mixing uniformly, placing the plate in a carbon dioxide cell incubator (5% CO2) at 37° C. and incubated for 72 hours. Then the relative number of viable cells is determined by the MTT method. In this experiment, the cell proliferation inhibition rate in control group (not treated with any compound) is set as 0%.

[3] = tested on: NB4; experiment: MTT leukemia cell proliferation inhibition, NB4; format: cell-based; settings: Homo sapiens, NB-4
From the text: as §3, §4, §5

[4] = tested on: CaES-17; experiment: MTT solid tumor cell proliferation inhibition, CaES-17; format: cell-based, human
Description: as §1, §2

[5] = tested on: RKO; experiment: MTT solid tumor cell proliferation inhibition, RKO; format: cell-based; settings: Homo sapiens, 72 h
Description: as §1, §2

[6] = tested on: Kasumi-1; experiment: MTT leukemia cell proliferation inhibition, Kasumi-1; format: cell-based; settings: Homo sapiens
From the text: as §3, §4, §5

[7] = tested on: MG 63; experiment: MTT solid tumor cell proliferation inhibition, MG 63; format: cell-based, human
Description: as §1, §2

[8] = tested on: U87 MG; experiment: MTT solid tumor cell proliferation inhibition, U87 MG; format: cell-based, human
Description: as §1, §2

[9] = tested on: CNE; experiment: MTT solid tumor cell proliferation inhibition, CNE; format: cell-based, human; settings: Homo sapiens, CNE, 72 h
Description: as §1, §2

[10] = tested on: H9; experiment: MTT leukemia cell proliferation inhibition, H9; format: cell-based, human; settings: Homo sapiens
From the text: as §3, §4, §5

[11] = tested on: K562/adr; experiment: MTT leukemia cell proliferation inhibition, K562/adr; format: cell-based; settings: Homo sapiens, 72 h
From the text: as §3, §4, §5

[12] = tested on: Hela; experiment: MTT solid tumor cell proliferation inhibition, Hela; format: cell-based, human; settings: Homo sapiens, Hela, 72 h
Description: as §1, §2

[13] = tested on: MGC803; experiment: MTT solid tumor cell proliferation inhibition, MGC803; format: cell-based, human; settings: Homo sapiens, MGC-803
Description: as §1, §2

[14] = tested on: Becap37; experiment: MTT solid tumor cell proliferation inhibition, Becap37; format: cell-based; settings: Homo sapiens
Description: as §1, §2

[15] = tested on: PANC-1; experiment: MTT solid tumor cell proliferation inhibition, PANC-1; format: cell-based, human; settings: Homo sapiens
Description: as §1, §2

[16] = tested on: Hep G2; experiment: MTT solid tumor cell proliferation inhibition, Hep G2; format: cell-based; settings: Homo sapiens, HepG2
Description: as §1, §2

[17] = tested on: RPMI8226; experiment: MTT multiple myeloma cell proliferation inhibition, RPMI8226; format: cell-based; settings: Homo sapiens, RPMI-8226
Description: Multiple myeloma cell lines: RPMI8226 (multiple myeloma), purchased from Fuxiang Bio-tech Co. Ltd., Shanghai, China.
as §5

[18] = tested on: PC-3; experiment: MTT solid tumor cell proliferation inhibition, PC-3; format: cell-based, human; settings: Homo sapiens
Description: as §1, §2

[19] = tested on: SK-OV-3; experiment: MTT solid tumor cell proliferation inhibition, SK-OV-3; format: cell-based, human; settings: Homo sapiens
Description: as §1, §2

[20] = tested on: Hep-2; experiment: MTT solid tumor cell proliferation inhibition, Hep-2; format: cell-based, human
Description: as §1, §2

[21] = 16 μg/mL compound, read-out: IR (inhibition rate)

Question: Which results are given for `CC1(C)CC[C@]2(NC(=O)c3ccco3)CC[C@]3(C)C(=CC[C@@H]4[C@@]5(C)CC[C@H](O)C(C)(C)[C@@H]5CC[C@]43C)[C@@H]2C1` [BS-OA-099]?
Answer: improvement of cell inhibition rate as compared with oleanolic acid ([1]; A549 cells): more than 4 fold; inhibition at 16 µg/mL ([1]; Homo sapiens, A549, 16 μg/mL compound, 72 h, read-out: IR (inhibition rate)): 75%; IC50 ([1]; Homo sapiens, A549, 72 h, MTT): 15 µg/mL (≈ 28.7 µM); inhibition at 16 µg/mL [2, 21]: 63.6%; IC50 ([2]; MTT): 14.5 µg/mL (≈ 27.8 µM); inhibition at 16 µg/mL ([3]; NB4, 16 μg/mL compound, 72 h, read-out: IR (inhibition rate)): 100%; IC50 ([3]; NB4, 72 h, MTT): 9.17 µg/mL (≈ 17.6 µM); improvement of cell inhibition rate as compared with oleanolic acid ([4]; CaES-17 cells): more than 2 fold; inhibition at 16 µg/mL ([4]; Homo sapiens, CaEs17, CaES-17, 16 μg/mL compound, 72 h, read-out: IR (inhibition rate)): 66.6%; IC50 ([4]; Homo sapiens, CaEs17, CaES-17, 72 h, MTT): 12.4 µg/mL (≈ 23.8 µM); inhibition at 16 µg/mL [5, 21]: 63.1%; IC50 ([5]; MTT): 14.3 µg/mL (≈ 27.4 µM); inhibition at 16 µg/mL ([6]; Kasumi-1, 16 μg/mL compound, 72 h, read-out: IR (inhibition rate)): 69.1%; IC50 ([6]; Kasumi-1, 72 h, MTT): 13.1 µg/mL (≈ 25.1 µM); IC50 ([7]; Homo sapiens, MG 63, 72 h, MTT): 15.1 µg/mL (≈ 29 µM); IR (inhibition rate) ([7]; MG 63, 16 μg/mL compound, 72 h): 58.9%; inhibition at 16 µg/mL ([8]; Homo sapiens, U-87 MG, U87 MG, 16 μg/mL compound, 72 h, read-out: IR (inhibition rate)): 47.9%; IC50 ([8]; Homo sapiens, U-87 MG, U87 MG, 72 h, MTT): 16 µg/mL (≈ 30.7 µM); improvement of cell inhibition rate as compared with oleanolic acid ([8]; U87 MG cells): more than 2 fold; inhibition at 16 µg/mL [9, 21]: 42.4%; IC50 ([9]; MTT): > 16 µg/mL; inhibition at 16 µg/mL ([10]; H9, 16 μg/mL compound, 72 h, read-out: IR (inhibition rate)): 59.8%; IC50 ([10]; H9, 72 h, MTT): 14 µg/mL (≈ 26.8 µM); inhibition at 16 µg/mL [11, 21]: 97.1%; IC50 ([11]; MTT): 5.26 µg/mL (≈ 10.1 µM); inhibition at 16 µg/mL [12, 21]: 72.9%; IC50 ([12]; MTT): 12.6 µg/mL (≈ 24.1 µM); inhibition at 16 µg/mL ([13]; MGC803, 16 μg/mL compound, 72 h, read-out: IR (inhibition rate)): 50%; IC50 ([13]; MGC803, 72 h, MTT): 16 µg/mL (≈ 30.7 µM); inhibition at 16 µg/mL ([14]; Becap37, 16 μg/mL compound, 72 h, read-out: IR (inhibition rate)): 35.1%; IC50 ([14]; Becap37, 72 h, MTT): > 16 µg/mL; inhibition at 16 µg/mL ([15]; PANC-1, 16 μg/mL compound, 72 h, read-out: IR (inhibition rate)): 34.3%; IC50 ([15]; PANC-1, 72 h, MTT): > 16 µg/mL; inhibition at 16 µg/mL ([16]; Hep G2, 16 μg/mL compound, 72 h, read-out: IR (inhibition rate)): 25.3%; IC50 ([16]; Hep G2, 72 h, MTT): > 16 µg/mL; inhibition at 16 µg/mL ([17]; RPMI8226, 16 μg/mL compound, 72 h, read-out: IR (inhibition rate)): 98.9%; IC50 ([17]; RPMI8226, 72 h, MTT): 5.79 µg/mL (≈ 11.1 µM); inhibition at 16 µg/mL ([18]; PC-3, 16 μg/mL compound, 72 h, read-out: IR (inhibition rate)): 47.2%; IC50 ([18]; PC-3, 72 h, MTT): 19.5 µg/mL (≈ 37.4 µM); inhibition at 16 µg/mL ([19]; SK-OV-3, 16 μg/mL compound, 72 h, read-out: IR (inhibition rate)): 43.2%; IC50 ([19]; SK-OV-3, 72 h, MTT): > 16 µg/mL; improvement of cell inhibition rate as compared with oleanolic acid ([20]; Hep-2 cells): more than 3 fold; inhibition at 16 µg/mL ([20]; Homo sapiens, Hep-2, 16 μg/mL compound, 72 h, read-out: IR (inhibition rate)): 37.3%; IC50 ([20]; Homo sapiens, Hep-2, 72 h, MTT): > 16 µg/mL
